Key:
Type in all cases: in vivo
[1] = tested on: Digitaria sanguinalis (DIGSA); assay: C. Herbicidal pre-emergence efficacy, DIGSA; conditions: scored after about 3 weeks
Source text: Seeds of monocotyledonous and dicotyledonous weed plants and crop plants were placed in plastic or organic planting pots and covered with soil. The compounds of the invention, formulated in the form of wettable powders (WP) or as emulsion concentrates (EC), were then applied to the surface of the covering soil as aqueous suspension or emulsion with addition of 0.5% additive at a water application rate equivalent to 600 l/ha (converted). After the treatment, the pots were placed in a greenhouse and kept under good growth conditions for the test plants. After about 3 weeks, the efficacy of the preparations was scored visually in comparison with untreated controls as percentages. For example, • 100% efficacy=plants have died, • 0% efficacy=like untreated control plants.
Tables C1a to C14b below show the effects of selected compounds of the general formula (I) according to table 1 on various harmful plants at an application rate corresponding to 320 g/ha or less, which were obtained by the experimental procedure mentioned above.

[2] = tested on: Amaranthus retroflexus (AMARE); assay: E. Herbicidal post-emergence efficacy, AMARE
Method: (§1) Seeds of monocotyledonous and dicotyledonous weeds and crop plants were placed in sandy loam in plastic or organic planting pots, covered with soil and cultivated in a greenhouse under controlled growth conditions. 2 to 3 weeks after sowing, the test plants were treated at the one-leaf stage. The compounds of the invention, formulated in the form of wettable powders (WP) or as emulsion concentrates (EC), were then sprayed onto the green parts of the plants as aqueous suspension or emulsion with addition of 0.5% additive at a water application rate of 600 l/ha (converted). After the test plants had been kept in the greenhouse under optimum growth conditions for about 3 weeks, the activity of the preparations was rated visually in comparison to untreated controls.
(§2) For example, • 100% efficacy=plants have died, • 0% action=like untreated control plants.
(§3) Tables E1a to E12b below show the effects of selected compounds of the general formula (I) according to table 1 on various harmful plants at an application rate corresponding to 320 g/ha or less, which were obtained by the experimental procedure mentioned above.

Kochia scoparia (KCHSC) [3] = assay: E. Herbicidal post-emergence efficacy, KCHSC
Method: as §1, §2, §3

[4] = tested on: Matricaria inodora (MATIN); assay: A. Herbicidal pre-emergence efficacy, MATIN
Outline: (§4)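 Applied before emergence onto covering soil at rates of 1280 g/ha or less, using 600 L/ha spray water with 0.5% additive. Scoring: visual % efficacy after ~3 weeks, greenhouse.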

[5] = tested on: Amaranthus retroflexus (AMARE); assay: A. Herbicidal pre-emergence efficacy, AMARE
Outline: as §4

[6] = tested on: Echinochloa crus-galli (ECHCG); assay: B. Herbicidal post-emergence efficacy, ECHCG; conditions: rated visually after about 3 weeks
Outline: (§5)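 Post-emergence foliar spray, at application rates of 1280 g/ha or less, on one-leaf-stage plants 2–3 weeks post-sowing, using aqueous WP or EC suspensions with 0.5% additive at 600 L/ha. Visual percent efficacy relative to untreated plants scored roughly 3 weeks later in the greenhouse.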

Kochia scoparia (KCHSC) [7] = assay: B. Herbicidal post-emergence efficacy, KCHSC; conditions: for Post-emergence efficacy against KCHSC: 1280 g/ha; for Post-emergence efficacy against KCHSC in %: rated visually after about 3 weeks
Outline: as §5

[8] = 320 g/ha, scored visually after about 3 weeks vs untreated controls
[9] = pre-emergence, dosage 1280 g/ha

| SMILES | Pre-emergence efficacy against DIGSA ([1]; 80 g/ha) [%] | Pre-emergence efficacy against DIGSA ([1]; 320 g/ha) [%] | Post-emergence efficacy against AMARE in % ([2]; application rate 80 g/ha) [%] | Post-emergence efficacy against AMARE in % ([2]; application rate 320 g/ha) [%] | Post-emergence efficacy against KCHSC in % (Kochia scoparia (KCHSC) [3]; application rate 80 g/ha) [%] | Post-emergence efficacy against KCHSC in % (Kochia scoparia (KCHSC) [3]; application rate 320 g/ha) [%] | Pre-emergence efficacy against MATIN [4, 8] [%] | Pre-emergence efficacy against MATIN [4, 9] [%] | Pre-emergence efficacy against AMARE in % ([5]; 80 g/ha) [%] | Pre-emergence efficacy against AMARE in % ([5]; 320 g/ha) [%] | Pre-emergence efficacy against AMARE in % ([5]; 1280 g/ha) [%] | Post-emergence efficacy against ECHCG in % ([6]; 1280 g/ha) [%] | Post-emergence efficacy against KCHSC (Kochia scoparia (KCHSC) [7]) [%] | Post-emergence efficacy against ECHCG in % ([6]; 320 g/ha) [%] | Post-emergence efficacy against KCHSC in % (Kochia scoparia (KCHSC) [7]; 80 g/ha) [%] | Post-emergence efficacy against KCHSC in % (Kochia scoparia (KCHSC) [7]; 320 g/ha) [%] | Post-emergence efficacy against ECHCG in % ([6]; 80 g/ha) [%] |
| --- | --- | --- | --- | --- | --- | --- | --- | --- | --- | --- | --- | --- | --- | --- | --- | --- | --- |
| O=S(=O)(CCC(F)=C(F)F)Oc1c(F)cccc1Oc1ncc(Cl)cn1 [Example I-70] | 100 | 100 | 100 | 100 | 90 | 100 | – | – | – | – | – | – | – | – | – | – | – |
| O=S(=O)(CCl)Oc1ccccc1Oc1ncc(Cl)cn1 [Example I-9] | – | 100 | 100 | 100 | – | – | 90 | 100 | 100 | 100 | 100 | 90 | 90 | – | – | – | – |
| O=S(=O)(CCCC(F)(F)F)Oc1c(Cl)cccc1Oc1ncc(Br)cn1 [Example I-34] | 90 | 100 | 100 | 100 | 100 | 100 | – | – | 90 | 90 | 100 | 90 | 100 | 90 | 100 | 100 | – |
| CC(C)CS(=O)(=O)Oc1ccccc1Oc1ncc(Cl)cn1 [Example I-7, [2-(5-Chloropyrimidin-2-yl)oxyphenyl] 2-methylpropane-1-sulfonate] | 100 | 100 | 90 | 100 | – | – | 100 | 100 | 100 | 100 | 100 | 90 | 90 | 90 | – | – | – |
| CCCCCS(=O)(=O)Oc1ccccc1Oc1ncc(Cl)cn1 [Example I-24] | 90 | 100 | 90 | 100 | – | – | – | – | 90 | 100 | 100 | 100 | 100 | – | 90 | 100 | – |
| O=S(=O)(CCCCCl)Oc1ccccc1Oc1ncc(Cl)cn1 [Example I-15] | 100 | 100 | 100 | 100 | – | – | – | – | 100 | 100 | 100 | 100 | 100 | 100 | 100 | 100 | 90 |
| Cc1cccc(OS(=O)(=O)CCCCl)c1Oc1ncc(Cl)cn1 [Example I-12] | 90 | 100 | 90 | 90 | – | – | 90 | 100 | 100 | 100 | 100 | – | 90 | – | – | – | – |
| CCS(=O)(=O)Oc1ccccc1Oc1ncc(Cl)cn1 [Example I-16] | – | – | – | – | – | – | 100 | 100 | 100 | 100 | 100 | 90 | 100 | – | 90 | 100 | – |
| O=S(=O)(CCCCl)Oc1cccc(F)c1Oc1ncc(Cl)cn1 [Example I-13] | – | – | – | 80 | – | – | – | – | – | – | 100 | 90 | 100 | – | – | 90 | – |
| CC(C)CCS(=O)(=O)Oc1ccccc1Oc1ncc(Cl)cn1 [Example I-25] | 100 | 100 | – | 90 | – | – | – | 100 | 90 | 100 | 100 | 100 | 100 | 90 | 90 | 100 | – |
| N#Cc1cccc(Oc2ncc(Cl)cn2)c1OS(=O)(=O)CCCC(F)(F)F [Example I-81] | 100 | 100 | 100 | 100 | 100 | 100 | – | – | – | – | – | – | – | – | – | – | – |
| O=S(=O)(CCC(F)=C(F)F)Oc1c(Cl)cccc1Oc1ncc(Cl)cn1 [Example I-73] | – | 100 | 80 | 100 | 90 | 90 | – | – | 90 | 100 | 100 | 100 | 100 | 90 | 90 | 100 | – |
| O=S(=O)(CCC1CC1)Oc1c(F)cccc1Oc1ncc(Cl)cn1 [Example I-55] | 100 | 100 | 90 | 100 | 80 | 90 | – | – | 100 | 100 | 100 | 90 | 90 | 90 | – | 90 | – |
| C=CCS(=O)(=O)Oc1ccccc1Oc1ncc(Cl)cn1 [Example I-36] | – | 100 | – | – | – | 90 | – | – | – | 100 | 100 | – | 90 | – | – | – | – |

Reference: US20240174618A1, “SUBSTITUTED (2-HETEROARYLOXYPHENYL)SULFONATES, SALTS THEREOF AND THEIR USE AS HERBICIDAL AGENTS” (Bayer Aktiengesellschaft, priority 2021, published 2024)
